SMILES strings stand for the structures. pIC50: −log10 of the molar value.

The results in this text go back to patent US20230331707A1, “PROGRAMMED CELL NECROSIS INHIBITOR, PREPARATION METHOD THEREFOR, AND USE THEREOF” (Shanghai Institute of Organic Chemistry, Chinese Academy of …, priority 2020, published 2023).

In series [1] the target is T1, RIPK1(1-330) protein (Homo sapiens, UniProt Q13546).
T1 construct: testing the effect of compound QY-10-40 on the kinase activity of RIPK1(1-330) protein; made in house
T1 sequence (Q13546 1-330): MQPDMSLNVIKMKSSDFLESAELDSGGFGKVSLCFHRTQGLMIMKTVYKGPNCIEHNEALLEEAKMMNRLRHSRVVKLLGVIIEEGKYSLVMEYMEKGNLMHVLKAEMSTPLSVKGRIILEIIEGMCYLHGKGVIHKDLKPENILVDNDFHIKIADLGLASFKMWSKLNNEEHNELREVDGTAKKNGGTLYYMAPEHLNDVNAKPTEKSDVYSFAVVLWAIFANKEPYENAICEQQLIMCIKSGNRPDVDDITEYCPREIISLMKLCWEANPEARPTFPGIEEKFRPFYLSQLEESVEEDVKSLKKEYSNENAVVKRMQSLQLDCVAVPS
The experiment in a line: RIPK1(1-330) kinase activity (ADP-Glo). The series is classed as biochemical. Conditions: read-out: effective semi-inhibitory concentration on RIPK1 kinase.
Description: Methods: RIPK1 (1-330) protein with a final concentration of 2 μM and ATP (IX kinase buffer) with a corresponding concentration, final concentration of 5 μL, were added to the 384-well plate, respectively. Each group at least set up triplicate wells and reacted for 2 h at 37° C. 5 μL ADP-Glo reagent was added, which was used to stop kinase reaction and remove residual ATP in reaction system. The plates was placed at room temperature for 40 min. 10 μL kinase detection reagent was added, which was used to convert ADP into ATP and introduce luciferase and luciferin for ATP detection into the system. The reaction was carried out at room temperature for 1 h. 7500 Fast Real-Time PCR System was used to detect luminescence. The IC50 of the compounds inhibiting the kinase reaction was calculated using Prism Graphpad statistical software.

In series [2] the test system is phosphorylation of RIPK1 and phosphorylation of downstream protein MLKL. The experiment in a line: Programmed necrosis pathway signals by western blot in L929 cells. The series is classed as cell-based, mouse. Here is the method: (§1) In order to verify whether the compounds of the present invention can inhibit programmed cell necrosis by inhibiting the activity of RIPK1, and to detect the changes in the signal of the programmed necrosis pathway. FADD-deficient Jurkat or L929 cells treated with the compound of the present invention were used, and TNFα was added to induce programmed necrosis. Then the cells were collected and phosphorylation of RIPK1 and oligomerization of MLKL were detected using western blot.
(§2) Methods: FADD-deficient Jurkat cells or L929 cells were cultured in vitro. After growing to the logarithmic growth phase, the cells were collected, centrifuged at 1000 rpm for 5 min, the supernatant was discarded, and the cell concentration was adjusted to 1×10^6/mL. In the 12-well cell culture plate, each well was added with 1 ml of cells, and 0.2 μL of DMSO solution with a concentration of 50 mM drug or pure DMSO control, and pretreated for 1 h. 0.5 μL of TNF α (PBS solution) with a concentration of 100 μg/ml was added to each stimulated group. […] The BCA protein quantification kit was used to detect the protein content of each group, and PIPA lysis buffer was used to adjust the protein amount to make the final volume being 100 μL. […] The resulting sample was incubated with ECL luminescent solution and the luminescent signal was detected.

The test system is the same in series [3]. Kind of series: Programmed necrosis pathway signals by western blot in FADD-deficient Jurkat cells. It counts as cell-based, human. Conditions: 1.6 nM. On the procedure: as §1, §2
The nature of series [4]: Pharmacokinetic properties in mice. The series is classed as in vivo. Here is the method: The adopted biological test protocol was: drug metabolism test of the compound on the mouse in vivo.
In order to verify the […], a representative compound QY-10-40 was selected and the pharmacokinetic properties of the compound in mice (n=3) were tested using single administration by gavage (PO, 10 mg/kg) or intravenous injection (IV, 1 mg/kg).

For series [5], the system named is TNFα-induced systemic inflammatory response syndrome. Kind of series: TNFα-induced systemic inflammatory response syndrome in mice. The series is classed as in vivo. The settings on record: gavage 2 mg/kg, 20 min before TNFα tail vein injection. Here is the method: The adopted biological test scheme was: Tail vein injection of tumor necrosis factor TNFα would lead to the occurrence of systemic inflammatory response syndrome in mice, resulting in decreased body temperature and death. The effect of representative compound QY-10-40 on TNFα-induced systemic inflammatory response syndrome was tested, and the change in body temperature and death of mice were monitored.
Systemic inflammatory response syndrome, also known as inflammatory storm, refers to a systemic non-specific inflammatory response caused by infectious or non-infectious injuries such as severe infection, multiple trauma, burns, ischemia reperfusion, and acute pancreatitis. Under this condition, large amounts of inflammatory factors will release, in severe cases organism will loss the control of inflammatory response, resulting in multi-organ failure and even death.
Methods: The compounds to be tested were dissolved in 0.5% carboxymethyl cellulose according to the required concentration one day in advance, and sonicated overnight. Each mouse was gavaged with 200 μl. 20 min later, […] was injected through the tail vein. Body temperature changes of mice were monitored by infrared thermometer after injection. The effects of the compounds were calculated using Prism Graphpad statistical software.

Series [6] has as its system RIPK1^K612R/K612R mutant mice. The experiment in a line: Digestive system inflammation in RIPK1 K612R/K612R mutant mice. The settings on record: gavage 25 mg/kg, control Nec-1s 50 mg/kg. The series is classed as in vivo. An excerpt:
The adopted biological test scheme was: RIPK1^K612R/K612R mutant mice were used as model mice to test the effect of representative compound QY-10-40 or QY-13-19 on spontaneous intestinal inflammation.
K612R mutation leads to decreased in intracellular RIPK1 level but abnormal activation, making it sensitive to programmed necrosis and caspase-1 activation, and responding to TLRs signaling. RIPK1^K612R/K612R mice will appear responses such as age-dependent reduced RIPK1 expression and abnormal activation, spontaneous intestinal inflammation and splenomegaly.
Methods: The compounds to be tested were dissolved in 0.5% carboxymethyl cellulose according to the required concentration one day in advance, and sonicated overnight. Mice were gavaged in a volume of 0.1 ml/10 g body weight. Body weight was measured three times a week, and samples were collected at the end of the experiment. The effect of the compounds was calculated using Prism Graphpad statistical software.

Turning to `Cn1ncc(C(=O)NCc2ccc(-n3cnc4c(N)ncnc43)cc2)c1Cc1ccccc1` [QY-10-40], in series [1], the pIC50 is 6.66. Besides, in series [2], the “inhibitory effect on pathway signals compared with GSK2982772 and Nec-1s” value is on record as “far superior to the other two”. The “inhibition of phosphorylation of RIPK1 and of downstream protein MLKL” value in series [3] is on record as “effectively inhibit”. In addition, in series [4] (PO 10 mg/kg, IV 1 mg/kg), the “bioavailability (F) (in words)” value is reported as “better bioavailability” and the “half-life (T1/2) (in words)” value is given as “better”. For the same compound, in series [4] (gavage 10 mg/kg, single dose, 10 nM = effective inhibitory concentration), the “blood concentrations for most of the time within 24 h” value is recorded as over 10 nM. Further, in series [4] (single dose (PO 10 mg/kg or IV 1 mg/kg)), the “time to peak (in words)” value was “rapidly reach the peak”. In series [5], the “effect on TNFα-induced hypothermia, inflammation response and death” value was “effectively resists against TNFα-induced hypothermia, inflammation response and death”. Further, the “effect on body weight and spleen coefficient” value in series [6] was “can inhibit the effect of the digestive system inflammation”.
